Earlier results as cited in US20070298008A1, “Method of bowel cleansing” (Braintree Laboratories, Inc., priority 2002, published 2007).
Like-named read-outs stand apart in the source and are kept apart here.

Tested on: intestines and rectum

CC(=O)Oc1ccc(C(c2ccc(OC(C)=O)cc2)c2ccccn2)cc1 [Bisacodyl]
Time to produce a bowel movement (enema): about 20 minutes
Time to produce a bowel movement (suppository): about an hour
